# Where “and” joins values, the source holds several entries; their conditions need not be identical. Equal values may be shown once.
# Assays:
# [1] = Solubility of active ingredient in volatile solvents (visual); conditions: for solubility: thermodynamic from solid, Solubility of the active ingredient; for solubility / Solubility of the active ingredient: visual; for Solubility of the active ingredient: listed as active ingredient
# Protocol: The active ingredient was dissolved in different solvents and the stability of the solution was assessed after being held overnight at ambient temperature. The following solvents were studied: ethanol, 50:50 EtOH:Water, 0.1 M HCl, pH 3 citric acid buffer, 5% SLS aq. and 5% Tween 80 aq.
# This study involved assessing the solubility and the chemical stability of the active ingredient in different volatile solvents for use in wet granulation. The solubility was measured visually after mixing (by the disappearance of undissolved solids). Increasing quantities of each solvent were added as detailed above.
# [2] = Forced degradation study of the active substance (HPLC assay, observations)
# [3] = Compatibility of active ingredient with HPMC and gelatin capsule shells (assay, related substances); type: physicochemical; conditions: for Assay (%): single vials
# Protocol: Binary mixtures of the active ingredient with the capsules shells were made as follows: • An active ingredient doping solution (active ingredient dissolved in ethanol) was made ([…]). A 100 μL aliquot of this doping was used to ‘spike’ the 10 vials of each capsule shell type as described in Table 5. The nominal quantity of active ingredient per vial was therefore 50 μg. • No doping solution was added to the three control vials of the excipient. • The active vials were left open overnight to evaporate all the ethanol, before closing the vials. • Both the active and placebo control vials were placed on stability for up to 28 days at 25° C. and 50° C.
# [4] = Gelatin capsule shell, 50° C., 28 days
# [5] = HPMC capsule shell, 25° C., 14 days
# [6] = HPMC capsule shell, 25° C., 14 days, listed as active ingredient
smiles,measurement,setting,value
"CCS(=O)(=O)Nc1ccc2c(c1)nc(C(C)(C)C)n2CC1CCC(F)(F)CC1 [Compound I, N-(2-(tert-butyl)-1-((4,4-difluorocyclohexyl)methyl)-1H-benzimidazol-5-yl)ethanesulfonamide]",solubility,"[1]; 0.1 M HCl, simulated gastric fluid",7000 µg/mL
same,Solubility of the active ingredient,[1]; 0.1 M HCl,> 7000 µg/mL
same,Time to dissolve,"[1]; 5% SLS aq., 0.6 mg/mL",70 min
same,Time to dissolve (DND = did not dissolve),"[1]; 5% SLS aq., 3 mg/mL",DND
same,Time to dissolve (DND = did not dissolve),"[1]; 5% SLS aq., 7 mg/mL",DND
same,solubility,"[1]; 5% Tween 80 aq., aqueous with cosolvent or surfactant or cyclodextrin, 5% Tween 80",< 600 µg/mL
same,Time to dissolve (DND = did not dissolve),"[1]; 5% Tween 80 aq., 0.6 mg/mL",DND
same,Time to dissolve (DND = did not dissolve),"[1]; 5% Tween 80 aq., 3 mg/mL",DND
same,Time to dissolve (DND = did not dissolve),"[1]; 5% Tween 80 aq., 7 mg/mL",DND
same,solubility,"[1]; 50:50 EtOH:water, aqueous with cosolvent or surfactant or cyclodextrin, 50:50 EtOH:water",< 600 µg/mL
same,Time to dissolve (DND = did not dissolve),"[1]; 50:50 EtOH:water, 0.6 mg/mL",DND
same,Time to dissolve (DND = did not dissolve),"[1]; 50:50 EtOH:water, 3 mg/mL",DND
same,Time to dissolve (DND = did not dissolve),"[1]; 50:50 EtOH:water, 7 mg/mL",DND
same,solubility,"[1]; aqueous 5% SLS, aqueous with cosolvent or surfactant or cyclodextrin",> 600 µg/mL
same,solubility,"[1]; ethanol, organic solvent or mixture",7000 µg/mL
same,Solubility of the active ingredient,[1]; ethanol,> 7000 µg/mL
same,solubility,"[1]; pH 3 citric acid buffer, pH 3, aqueous buffer, pH 3 citric buffer",> 600 µg/mL
same,Time to dissolve,"[1]; pH 3 citric acid buffer, 0.6 mg/mL",180 min
same,Time to dissolve (DND = did not dissolve),"[1]; pH 3 citric acid buffer, 3 mg/mL",DND
same,Time to dissolve (DND = did not dissolve),"[1]; pH 3 citric acid buffer, 7 mg/mL",DND
same,Sample observations,"[2]; Test 1 Control (solution, ambient temperature)",Clear colourless solution. No change over study period.
same,Assay of active substance,"[2]; Test 1 solution control, 0 days",99.40 area %
same,Assay of active substance,"[2]; Test 1 solution control, 3 days",99.42 area %
same,Assay of active substance,"[2]; Test 1 solution control, 7 days",99.30 area %
same,Assay of active substance,"[2]; Test 1 solution control, 11 days",99.39 area %
same,Sample observations,[2]; Test 2 Solid state 100° C.,Off-white solid turning to very faint orange solid over study
same,Assay of active substance,"[2]; Test 2 solid state at 100° C., 3 days",99.43 area %
same,Assay of active substance,"[2]; Test 2 solid state at 100° C., 7 days",99.40 area %
same,Sample observations,[2]; Test 3 Acid 60° C.,Clear colourless solution. No change over study period.
same,Sample observations,"[2]; Test 3 Acid (1M, ambient temperature)",Clear colourless solution. No change over study period.
same,Assay of active substance,"[2]; Test 3 acid (1M) ambient temperature, 3 days",99.40 area %
same,Assay of active substance,"[2]; Test 3 acid (1M) ambient temperature, 7 days",99.41 area %
same,Assay of active substance,"[2]; Test 3 acid (1M) at 60° C. until day 7, 80° C. until day 11, 11 days",98.87 area %
same,Assay of active substance,"[2]; Test 3 acid (1M) at 60° C., 3 days",99.37 area %
same,Assay of active substance,"[2]; Test 3 acid (1M) at 60° C., 7 days",99.35 area %
same,Sample observations,[2]; Test 4 Base 40° C.,Clear colourless solution. No change over study period.
same,Sample observations,"[2]; Test 4 Base (0.5M, ambient temperature)",Clear colourless solution. No change over study period.
same,Assay of active substance,"[2]; Test 4 base (0.5M) ambient temperature, 3 days",99.40 area %
same,Assay of active substance,"[2]; Test 4 base (0.5M) ambient temperature, 7 days",99.37 area %
same,Assay of active substance,"[2]; Test 4 base (0.5M) at 60° C. until day 7, 80° C. until day 11, 11 days",99.16 area %
same,Assay of active substance,"[2]; Test 4 base (0.5M) at 60° C., 3 days",99.34 area %
same,Assay of active substance,"[2]; Test 4 base (0.5M) at 60° C., 7 days",99.32 area %
same,Sample observations,[2]; Test 5 Heat 60° C. (solution),Clear colourless solution. No change over study period
same,Assay of active substance,"[2]; Test 5 solution at 60° C. until day 7, 80° C. until day 11, 11 days",98.00 area %
same,Assay of active substance,"[2]; Test 5 solution at 60° C., 3 days",99.13 area %
same,Assay of active substance,"[2]; Test 5 solution at 60° C., 7 days",99.34 area %
same,Sample observations,[2]; Test 6 Peroxide (1.5%),Clear colourless solution. No change over study period
same,Assay of active substance,"[2]; Test 6 peroxide (1.5%), 3 days",98.50 area %
same,Assay of active substance,"[2]; Test 6 peroxide (1.5%), 7 days",97.75 area %
same,Assay of active substance,"[2]; Test 6 peroxide (1.5%), 13 days",96.58 area %
same,Sample observations,[2]; Test 7 Photostability (Solution Control),Clear colourless solution. No change over study period.
same,Assay of active substance,[2]; Test 7 photocontrol solution,99.40 area %
same,Sample observations,[2]; Test 8 Photostability (Solution Treated),Clear colourless solution turning to a clear yellow solution
same,Assay of active substance,"[2]; Test 8 photo treated solution, 1.92 million lux hours, near-UV 374.6 Whm^−2",74.53 area %
same,Sample observations,[2]; Test 9 Photostability (Solid Control),Off white solid. No change over study period.
same,Assay of active substance,[2]; Test 9 photocontrol solid,99.40 area %
same,Sample observations,[2]; Test 10 Photostability (Solid Treated),Off-white solid turning to very faint orange solid over study
same,Assay of active substance,"[2]; Test 10 phototreated solid, 1.92 million lux hours, near-UV 374.6 Whm^−2",99.31 area %
same,Forced degradation outcome (summary),"[2]; peroxide, 1M acid, 0.5M base and solution when extended to 80° C.",slight degradation
same,Forced degradation outcome (summary),"[2]; solution at room temperature, solid at 100° C., 1M acid and 0.5M base at room temperature and 60° C., solution at 60° C., photostability as a solid",stable to degradation
same,Forced degradation outcome (summary),[2]; solution under photostability conditions,Major degradation
same,"Assay (%), mean","[3]; Gelatin capsule shell, 25° C., 14 days",98.1%
same,Assay (%),"[3]; Gelatin capsule shell, 25° C., 14 days, listed as active ingredient",98.9% and 97.4%
same,"Assay (%), mean","[3]; Gelatin capsule shell, 25° C., 28 days",99.1%
same,Assay (%),"[3]; Gelatin capsule shell, 25° C., 28 days, listed as active ingredient",98.8% and 99.4%
same,"Assay (%), mean","[3]; Gelatin capsule shell, 50° C., 14 days",99.3%
same,Assay (%),"[3]; Gelatin capsule shell, 50° C., 14 days, listed as active ingredient",99.3% and 99.4%
same,"Assay (%), mean",[3]; [4],89.3%
same,Assay (%),[3]; [4],99.4%
same,"Assay (%), mean","[3]; Gelatin capsule shell, initial",99.6%
same,Assay (%),"[3]; Gelatin capsule shell, initial, listed as active ingredient",99.0% and 100.2%
same,"Assay (%), mean",[3]; [5],95.8%
same,Related substance RRT 1.04,[3]; [5],0.08%
same,Related substance RRT 1.10,[3]; [5],0.09%
same,Related substance RRT 0.92,[3]; [6],0.08% and 0.07%
same,Related substance RRT 0.98,[3]; [6],0.31% and 0.32%
same,Related substance RRT 1.35,[3]; [6],0.13% and 0.12%
